From paper PMC8222254, “Self-assembly of an anion receptor with metal-dependent kinase inhibition and potent in vitro anti-cancer properties” (Nature Communications, 2021)
Where “and” joins values, the source holds several entries; their conditions need not be identical. Equal entries are not always repeated.

Columns and labels:
Test in all cases: Kinase inhibition screen, cell-free 33P ATP assay at 10 μM
Format in all cases: biochemical
[1] = biological target: T1, 140 purified human kinases (Homo sapiens, UniProt O14920); settings: IKKb; for % Activity inhibition Mean / % Activity inhibition Run 1 / % Activity inhibition Run 2 / % Activity remaining Run 1 / % Activity remaining Run 2: 10 µM
T1 sequence (O14920 1-756): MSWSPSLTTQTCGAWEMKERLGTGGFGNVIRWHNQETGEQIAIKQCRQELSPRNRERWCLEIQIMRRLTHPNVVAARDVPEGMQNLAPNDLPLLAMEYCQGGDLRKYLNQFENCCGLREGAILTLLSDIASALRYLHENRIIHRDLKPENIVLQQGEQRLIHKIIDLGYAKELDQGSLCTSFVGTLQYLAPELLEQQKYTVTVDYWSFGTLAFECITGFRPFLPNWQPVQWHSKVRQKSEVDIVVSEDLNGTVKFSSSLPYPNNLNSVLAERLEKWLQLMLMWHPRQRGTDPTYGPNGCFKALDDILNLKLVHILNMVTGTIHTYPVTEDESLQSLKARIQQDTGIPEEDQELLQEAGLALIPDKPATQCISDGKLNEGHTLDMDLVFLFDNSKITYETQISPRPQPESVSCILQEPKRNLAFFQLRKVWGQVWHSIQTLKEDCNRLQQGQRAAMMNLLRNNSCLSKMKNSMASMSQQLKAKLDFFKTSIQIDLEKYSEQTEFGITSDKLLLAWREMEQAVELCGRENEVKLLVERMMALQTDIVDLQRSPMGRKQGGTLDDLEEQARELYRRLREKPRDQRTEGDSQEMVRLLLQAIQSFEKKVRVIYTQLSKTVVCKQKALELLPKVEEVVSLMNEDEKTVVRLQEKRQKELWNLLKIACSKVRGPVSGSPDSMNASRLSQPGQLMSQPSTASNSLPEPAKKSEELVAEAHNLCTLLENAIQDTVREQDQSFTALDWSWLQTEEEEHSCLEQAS
Procedure, shortened: (§1)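 Radiometric ^33P ATP cell-free format with purified enzymes; both complexes run at 10 μM in duplicate, results plotted on a kinome map via HGNC symbols.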

[2] = biological target: 140 purified human kinases (Homo sapiens, UniProt P07947)
Procedure, shortened: as §1

[3] = biological target: T2, 140 purified human kinases (Homo sapiens, UniProt Q9UHD2)
T2 sequence (Q9UHD2 1-729): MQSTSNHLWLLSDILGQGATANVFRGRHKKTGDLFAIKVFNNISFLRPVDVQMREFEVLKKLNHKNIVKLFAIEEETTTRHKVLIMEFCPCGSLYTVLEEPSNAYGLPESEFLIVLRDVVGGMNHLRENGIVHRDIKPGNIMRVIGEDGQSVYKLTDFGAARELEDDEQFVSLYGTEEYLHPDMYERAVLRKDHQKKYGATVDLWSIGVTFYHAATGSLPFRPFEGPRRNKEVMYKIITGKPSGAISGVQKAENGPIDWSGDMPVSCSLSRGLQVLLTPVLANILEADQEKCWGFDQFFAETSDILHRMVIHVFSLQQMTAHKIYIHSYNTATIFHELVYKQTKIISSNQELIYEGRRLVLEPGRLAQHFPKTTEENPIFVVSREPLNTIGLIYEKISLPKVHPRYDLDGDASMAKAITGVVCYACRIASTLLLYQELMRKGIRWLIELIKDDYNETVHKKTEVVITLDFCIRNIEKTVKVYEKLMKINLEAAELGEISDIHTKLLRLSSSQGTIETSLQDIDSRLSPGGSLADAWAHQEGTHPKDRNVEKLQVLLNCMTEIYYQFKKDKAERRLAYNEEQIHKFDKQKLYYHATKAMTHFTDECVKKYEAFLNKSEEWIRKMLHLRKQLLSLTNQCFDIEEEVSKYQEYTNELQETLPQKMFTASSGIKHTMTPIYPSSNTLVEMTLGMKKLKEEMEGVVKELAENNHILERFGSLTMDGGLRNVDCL
Procedure, shortened: as §1

[4] = biological target: 140 purified human kinases (Homo sapiens, UniProt Q15303)
Procedure, shortened: as §1

Sequence of 140 purified human kinases (Homo sapiens, UniProt Q15303) (Q15303 26-1308): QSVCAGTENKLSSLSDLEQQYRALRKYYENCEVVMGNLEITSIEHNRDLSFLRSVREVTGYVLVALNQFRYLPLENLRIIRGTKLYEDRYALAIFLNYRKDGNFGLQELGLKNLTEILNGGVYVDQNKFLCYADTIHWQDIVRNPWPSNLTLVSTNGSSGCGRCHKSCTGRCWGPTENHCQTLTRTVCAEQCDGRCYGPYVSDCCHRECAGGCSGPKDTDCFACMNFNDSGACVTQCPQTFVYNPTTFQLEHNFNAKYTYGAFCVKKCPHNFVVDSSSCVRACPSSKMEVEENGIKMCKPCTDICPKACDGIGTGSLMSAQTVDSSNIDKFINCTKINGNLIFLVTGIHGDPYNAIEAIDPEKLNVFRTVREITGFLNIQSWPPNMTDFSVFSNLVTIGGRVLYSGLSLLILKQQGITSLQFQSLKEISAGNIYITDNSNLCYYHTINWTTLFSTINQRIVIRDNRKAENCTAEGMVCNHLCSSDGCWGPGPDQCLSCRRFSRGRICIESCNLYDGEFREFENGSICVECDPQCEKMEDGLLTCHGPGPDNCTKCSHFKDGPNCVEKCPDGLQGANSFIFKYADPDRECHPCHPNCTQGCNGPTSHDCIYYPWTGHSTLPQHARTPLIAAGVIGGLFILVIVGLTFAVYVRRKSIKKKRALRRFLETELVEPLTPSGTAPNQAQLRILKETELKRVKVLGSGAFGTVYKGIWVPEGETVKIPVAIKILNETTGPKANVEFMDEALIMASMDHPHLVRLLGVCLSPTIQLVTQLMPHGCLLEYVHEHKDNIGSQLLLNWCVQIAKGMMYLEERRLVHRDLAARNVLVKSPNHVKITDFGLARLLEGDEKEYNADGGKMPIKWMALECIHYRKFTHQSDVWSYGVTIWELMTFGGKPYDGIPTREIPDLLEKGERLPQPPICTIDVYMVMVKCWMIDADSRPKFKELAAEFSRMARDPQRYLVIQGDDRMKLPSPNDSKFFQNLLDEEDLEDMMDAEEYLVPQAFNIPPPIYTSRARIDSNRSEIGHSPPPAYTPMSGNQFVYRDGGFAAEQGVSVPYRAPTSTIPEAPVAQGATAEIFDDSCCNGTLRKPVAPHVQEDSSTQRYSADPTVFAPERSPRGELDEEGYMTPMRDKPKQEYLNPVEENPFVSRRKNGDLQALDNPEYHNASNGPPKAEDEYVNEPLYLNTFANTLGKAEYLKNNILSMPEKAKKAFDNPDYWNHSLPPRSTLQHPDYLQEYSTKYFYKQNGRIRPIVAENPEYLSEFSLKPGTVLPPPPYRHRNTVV
Sequence of 140 purified human kinases (Homo sapiens, UniProt P07947) (P07947 whole entry): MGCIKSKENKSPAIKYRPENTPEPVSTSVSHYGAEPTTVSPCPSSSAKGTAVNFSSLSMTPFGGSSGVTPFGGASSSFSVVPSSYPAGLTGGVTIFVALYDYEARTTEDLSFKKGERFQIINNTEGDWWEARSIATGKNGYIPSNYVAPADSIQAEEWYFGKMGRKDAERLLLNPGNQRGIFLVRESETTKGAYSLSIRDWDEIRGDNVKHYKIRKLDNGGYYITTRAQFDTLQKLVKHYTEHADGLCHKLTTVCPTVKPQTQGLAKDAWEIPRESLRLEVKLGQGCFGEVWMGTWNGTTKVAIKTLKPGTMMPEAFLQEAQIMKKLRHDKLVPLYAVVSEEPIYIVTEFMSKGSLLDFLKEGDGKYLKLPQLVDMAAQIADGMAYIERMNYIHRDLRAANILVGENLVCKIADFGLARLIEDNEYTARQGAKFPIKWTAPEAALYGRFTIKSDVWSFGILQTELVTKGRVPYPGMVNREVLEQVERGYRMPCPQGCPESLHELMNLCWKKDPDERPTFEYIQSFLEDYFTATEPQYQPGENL

Row | Structure (SMILES) | % Inhibition, Mean [1] [%] | mean % activity [1] [%] | % Activity inhibition Mean [1] [%] | % Activity inhibition Run 1 [1] [%] | % Activity inhibition Run 2 [1] [%] | % Activity remaining Run 1 [1] [%] | % Activity remaining Run 2 [1] [%] | % Inhibition, Mean ([2]; YES1) [%] | mean % activity ([2]; YES1) [%] | % Inhibition, Mean ([3]; TBK1) [%] | mean % activity ([3]; TBK1) [%] | % Inhibition, Mean ([4]; HER4) [%] | mean % activity ([4]; HER4) [%] | further results
1 | [Cu+2].[Cu+2].[Cu+2].c1ccc(-c2csc(NCCN(CCNc3nc(-c4ccccn4)cs3)CCNc3nc(-c4ccccn4)cs3)n2)nc1.c1ccc(-c2csc(NCCN(CCNc3nc(-c4ccccn4)cs3)CCNc3nc(-c4ccccn4)cs3)n2)nc1 [[L2Cu3]6+] | 92 | 8 | 92.3 | 92.1 | 92.5 | 7.90 | 7.50 | 1.7 | 98 | 62 | 38 | 28 | 72 | % Inhibition Run 1 [1]: 92.1%; % Inhibition Run 2 [1]: 92.5%; % activity ([1]; Run 1): 7.9%; % activity ([1]; Run 2): 7.5%; % Inhibition Run 1 ([2]; YES1): 12.4%; % Inhibition Run 2 ([2]; YES1): -9%; % activity ([2]; YES1, Run 1): 87.6%; % activity ([2]; YES1, Run 2): 109%; % Inhibition Run 1 ([3]; TBK1): 60.3%; % Inhibition Run 2 ([3]; TBK1): 64%; % activity ([3]; TBK1, Run 1): 39.7%; % activity ([3]; TBK1, Run 2): 36%; % Inhibition Run 1 ([4]; HER4): 32.7%; % Inhibition Run 2 ([4]; HER4): 23.3%; % activity ([4]; HER4, Run 1): 67.3%; % activity ([4]; HER4, Run 2): 76.7%
2 | CC(=O)[O-].CC(=O)[O-].CC(=O)[O-].CC(=O)[O-].CC(=O)[O-].CC(=O)[O-].[Zn+2].[Zn+2].[Zn+2].c1ccc(-c2csc(NCCN(CCNc3nc(-c4ccccn4)cs3)CCNc3nc(-c4ccccn4)cs3)n2)nc1.c1ccc(-c2csc(NCCN(CCNc3nc(-c4ccccn4)cs3)CCNc3nc(-c4ccccn4)cs3)n2)nc1 [[L2Zn3]6+] | 92 | 8 | 92.0 | 94 | 90 | 6 | 10 | 8 | 92 | 13 | 87 | 3.65 | 96 | % Inhibition, Run 1 / Run 2 [1]: 94% and 90%; % activity ([1]; duplicate runs): 6% and 10%; % Inhibition, Run 1 / Run 2 ([2]; YES1): 7% and 8%; % activity ([2]; YES1, duplicate runs): 93% and 92%; % activity ([3]; TBK1, duplicate runs): 81% and 93%; % activity ([4]; HER4, duplicate runs): 88% and 105%
